How the values were obtained:
Assay in all cases: relative viability (nuclei count vs DMSO), 5 days (fraction); higher = more cells survive
Omipalisib = compound: COc1ncc(-c2ccc3nccc(-c4ccnnc4)c3c2)cc1NS(=O)(=O)c1ccc(F)cc1F [Omipalisib]
Procedure, shortened: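 A plate was accepted only when its control CV was below 25% and the cells had doubled at least once. Viability is defined from nuclear counts as treated wells divided by vehicle wells, with the median taken across plates. That median covers lung cancer cell lines grown in 1536-well plates, dosed by pinning at five √10-spaced library-drug concentrations, and counted in MetaXpress from 4× Hoechst images after 5 days.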

Omipalisib + Phenformin = compound: COc1ncc(-c2ccc3nccc(-c4ccnnc4)c3c2)cc1NS(=O)(=O)c1ccc(F)cc1F [Omipalisib] + N=C(N)NC(=N)NCCc1ccccc1 [Phenformin] (partner 250 µM)
Procedure, shortened: (§1)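 Relative viability divides the nuclei count in treated wells by that in vehicle wells. Lung cancer cell lines were seeded in 1536-well plates, dosed by pin tool the next day, and fixed and stained after 5 days in one step with final 0.05% Triton X-100, 1% formaldehyde and 1 ug/ml Hoechst. Dosing was a single drug or a fixed anchor-drug dose plus five library-drug doses (not always all listed) in √10 steps, and values are medians of duplicate plates imaged at 4×.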

Omipalisib + Dasatinib = compound: COc1ncc(-c2ccc3nccc(-c4ccnnc4)c3c2)cc1NS(=O)(=O)c1ccc(F)cc1F [Omipalisib] + Cc1nc(Nc2ncc(C(=O)Nc3c(C)cccc3Cl)s2)cc(N2CCN(CCO)CC2)n1 [Dasatinib] (partner 0.075 µM)
Procedure, shortened: as §1

Omipalisib + Luminespib = compound: COc1ncc(-c2ccc3nccc(-c4ccnnc4)c3c2)cc1NS(=O)(=O)c1ccc(F)cc1F [Omipalisib] + CCNC(=O)c1noc(-c2cc(C(C)C)c(O)cc2O)c1-c1ccc(CN2CCOCC2)cc1 [Luminespib] (partner 0.01 µM)
Procedure, shortened: as §1

Omipalisib + Foretinib = compound: COc1ncc(-c2ccc3nccc(-c4ccnnc4)c3c2)cc1NS(=O)(=O)c1ccc(F)cc1F [Omipalisib] + COc1cc2c(Oc3ccc(NC(=O)C4(C(=O)Nc5ccc(F)cc5)CC4)cc3F)ccnc2cc1OCCCN1CCOCC1 [Foretinib] (partner 0.25 µM)
Procedure, shortened: as §1

Omipalisib + Tozasertib = compound: COc1ncc(-c2ccc3nccc(-c4ccnnc4)c3c2)cc1NS(=O)(=O)c1ccc(F)cc1F [Omipalisib] + Cc1cc(Nc2cc(N3CCN(C)CC3)nc(Sc3ccc(NC(=O)C4CC4)cc3)n2)n[nH]1 [Tozasertib] (partner 0.1 µM)
Procedure, shortened: as §1

Omipalisib + OSI-027 = compound: COc1ncc(-c2ccc3nccc(-c4ccnnc4)c3c2)cc1NS(=O)(=O)c1ccc(F)cc1F [Omipalisib] + COc1cccc2cc(-c3nc([C@H]4CC[C@H](C(=O)O)CC4)n4ncnc(N)c34)[nH]c12 [OSI-027] (partner 0.5 µM)
Procedure, shortened: as §1

Omipalisib + Olaparib = compound: COc1ncc(-c2ccc3nccc(-c4ccnnc4)c3c2)cc1NS(=O)(=O)c1ccc(F)cc1F [Omipalisib] + O=C(c1cc(Cc2n[nH]c(=O)c3ccccc23)ccc1F)N1CCN(C(=O)C2CC2)CC1 [Olaparib] (partner 8 µM)
Procedure, shortened: as §1

Omipalisib + AZD7762 = compound: COc1ncc(-c2ccc3nccc(-c4ccnnc4)c3c2)cc1NS(=O)(=O)c1ccc(F)cc1F [Omipalisib] + NC(=O)Nc1cc(-c2cccc(F)c2)sc1C(=O)N[C@H]1CCCNC1 [AZD7762] (partner 0.2 µM)
Procedure, shortened: as §1

Omipalisib + Palbociclib = compound: COc1ncc(-c2ccc3nccc(-c4ccnnc4)c3c2)cc1NS(=O)(=O)c1ccc(F)cc1F [Omipalisib] + CC(=O)c1c(C)c2cnc(Nc3ccc(N4CCNCC4)cn3)nc2n(C2CCCC2)c1=O [Palbociclib] (partner 0.5 µM)
Procedure, shortened: as §1

Omipalisib + Vorinostat = compound: COc1ncc(-c2ccc3nccc(-c4ccnnc4)c3c2)cc1NS(=O)(=O)c1ccc(F)cc1F [Omipalisib] + O=C(CCCCCCC(=O)Nc1ccccc1)NO [Vorinostat] (partner 1 µM)
Procedure, shortened: as §1

Omipalisib + Pemetrexed = compound: COc1ncc(-c2ccc3nccc(-c4ccnnc4)c3c2)cc1NS(=O)(=O)c1ccc(F)cc1F [Omipalisib] + Nc1nc2[nH]cc(CCc3ccc(C(=O)N[C@@H](CCC(=O)O)C(=O)O)cc3)c2c(=O)[nH]1 [Pemetrexed] (partner 0.2 µM)
Procedure, shortened: as §1

Omipalisib + Decitabine = compound: COc1ncc(-c2ccc3nccc(-c4ccnnc4)c3c2)cc1NS(=O)(=O)c1ccc(F)cc1F [Omipalisib] + Nc1ncn([C@H]2C[C@H](O)[C@@H](CO)O2)c(=O)n1 [Decitabine] (partner 2 µM)
Procedure, shortened: as §1

Omipalisib + Trametinib = compound: COc1ncc(-c2ccc3nccc(-c4ccnnc4)c3c2)cc1NS(=O)(=O)c1ccc(F)cc1F [Omipalisib] + CC(=O)Nc1cccc(-n2c(=O)n(C3CC3)c(=O)c3c(Nc4ccc(I)cc4F)n(C)c(=O)c(C)c32)c1 [Trametinib] (partner 0.02 µM)
Procedure, shortened: as §1

## NCI-H1623
Omipalisib; 0.0003 µM
  relative viability: 0.855
Omipalisib; 0.003 µM
  relative viability: 0.553
Omipalisib; 0.03 µM
  relative viability: 0.359
Omipalisib + Phenformin; first compound 0.0003 µM
  relative viability: 0.479
Omipalisib + Phenformin; first compound 0.003 µM
  relative viability: 0.607
Omipalisib + Phenformin; first compound 0.03 µM
  relative viability: 0.247
Omipalisib + Dasatinib; first compound 0.0003 µM
  relative viability: 0.488
Omipalisib + Dasatinib; first compound 0.003 µM
  relative viability: 0.466
Omipalisib + Dasatinib; first compound 0.03 µM
  relative viability: 0.266
Omipalisib + Luminespib; first compound 0.0003 µM
  relative viability: 0.399
Omipalisib + Luminespib; first compound 0.003 µM
  relative viability: 0.287
Omipalisib + Luminespib; first compound 0.03 µM
  relative viability: 0.292
Omipalisib + Foretinib; first compound 0.0003 µM
  relative viability: 0.76
Omipalisib + Foretinib; first compound 0.003 µM
  relative viability: 0.727
Omipalisib + Foretinib; first compound 0.03 µM
  relative viability: 0.316
Omipalisib + Tozasertib; first compound 0.0003 µM
  relative viability: 0.409
Omipalisib + Tozasertib; first compound 0.003 µM
  relative viability: 0.354
Omipalisib + Tozasertib; first compound 0.03 µM
  relative viability: 0.273
Omipalisib + OSI-027; first compound 0.0003 µM
  relative viability: 0.398
Omipalisib + OSI-027; first compound 0.003 µM
  relative viability: 0.338
Omipalisib + OSI-027; first compound 0.03 µM
  relative viability: 0.294

## NCI-H1648
Omipalisib; 0.0003 µM
  relative viability: 0.913
Omipalisib; 0.003 µM
  relative viability: 0.504
Omipalisib; 0.03 µM
  relative viability: 0.278
Omipalisib + Olaparib; first compound 0.0003 µM
  relative viability: 0.384
Omipalisib + Olaparib; first compound 0.003 µM
  relative viability: 0.392
Omipalisib + Olaparib; first compound 0.03 µM
  relative viability: 0.202
Omipalisib + AZD7762; first compound 0.0003 µM
  relative viability: 0.644
Omipalisib + AZD7762; first compound 0.003 µM
  relative viability: 0.843
Omipalisib + AZD7762; first compound 0.03 µM
  relative viability: 0.386
Omipalisib + Palbociclib; first compound 0.0003 µM
  relative viability: 0.277
Omipalisib + Palbociclib; first compound 0.003 µM
  relative viability: 0.23
Omipalisib + Palbociclib; first compound 0.03 µM
  relative viability: 0.29
Omipalisib + Vorinostat; first compound 0.0003 µM
  relative viability: 0.548
Omipalisib + Vorinostat; first compound 0.003 µM
  relative viability: 0.396
Omipalisib + Vorinostat; first compound 0.03 µM
  relative viability: 0.228
Omipalisib + Pemetrexed; first compound 0.0003 µM
  relative viability: 0.754
Omipalisib + Pemetrexed; first compound 0.003 µM
  relative viability: 0.619
Omipalisib + Pemetrexed; first compound 0.03 µM
  relative viability: 0.413
Omipalisib + Decitabine; first compound 0.0003 µM
  relative viability: 0.445
Omipalisib + Decitabine; first compound 0.003 µM
  relative viability: 0.363
Omipalisib + Decitabine; first compound 0.03 µM
  relative viability: 0.356
Omipalisib + Trametinib; first compound 0.0003 µM
  relative viability: 0.362
Omipalisib + Trametinib; first compound 0.003 µM
  relative viability: 0.407
Omipalisib + Trametinib; first compound 0.03 µM
  relative viability: 0.249
Omipalisib + Tozasertib; first compound 0.0003 µM
  relative viability: 0.322
Omipalisib + Tozasertib; first compound 0.003 µM
  relative viability: 0.408
Omipalisib + Tozasertib; first compound 0.03 µM
  relative viability: 0.184
Omipalisib + OSI-027; first compound 0.0003 µM
  relative viability: 0.253
Omipalisib + OSI-027; first compound 0.003 µM
  relative viability: 0.291
Omipalisib + OSI-027; first compound 0.03 µM
  relative viability: 0.26

From the supplement of paper PMC10307832
